According to patent US9850247B2 (Almac Discovery Limited, priority 2013, dated 2017):
Like-named read-outs stand apart in the source and are kept apart here.

Experiments:
[1] = tested on: phospho-cdc2 (Tyr15) in HT-29 cells; experiment: Effect on Cdc2 phosphorylation at Tyr15, Cell-Based ELISA Base Kit (Method 3); conditions: eight hours incubation, normalized to total cdc2, read-out: HT29 pCDC2 method 3
Method: Method 3: Determining the Effect of Compounds on the Cdc2 phosphorylation at Tyr15, using a Cell-Based ELISA Base Kit (R&D Systems, KCB001)
The colorectal cancer cell line, HT-29 was purchased from the ATCC and maintained in McCoy's 5 A medium (Gibco®, Life technologies) supplemented with 10% Foetal Calf Serum (FCS).
The cells were trypsinised and counted, 100 μL of 8000 cells was seeded into each well of a clear-bottom black 96-well microplate and incubated overnight to allow adherence to the surface, at 37° C. and 5% CO2 in a cell culture incubator.
Test compounds were formulated in DMSO and diluted in cell culture medium supplemented with FCS. Grow medium was removed from cells and medium containing compounds dilutions was added to each well. The plate was returned to the incubator for an additional eight hours of incubation at 37° C. and 5% CO2.
Post incubation cells were fixed by replacing the compounds supplemented medium with 100 μL of 4% formaldehyde in 1× phosphate buffered saline (PBS), for 20 minutes at room temperature. Formaldehyde solution was removed and cells were washed three times with PBS. The Cell-Based ELISA assay (R&D Systems) was carried out immediately after cell fixation or the plate was sealed and fixed cells were stored in PBS at 4° C. until required (no more than two weeks).
To continue the assay, PBS was removed and cells were washed 3 times for 5 minutes with 200 μL of 1× wash buffer. Each wash step was carried out with gentle shaking. Following washes, 100 μL of 0.6% H2O2 in 1× wash buffer (quenching buffer) was added, plate was sealed and incubated for 20 minutes at room temperature. Post incubation cells were washes 3 times for 5 minutes with 200 μL of 1× wash buffer, with gentle shaking. 100 μL of blocking buffer was added to each well, the plate was re-sealed and incubated at room temperature for 1 h.
After blocking, cells were washed as described above. A primary antibody mixture was prepared by mixing the two primary antibodies, a rabbit monoclonal antibody for phospho-cdc2 (Tyr15) (Cell Signaling, #4539) and mouse monoclonal antibody for total cdc2 p34 (Santa Cruz Biotechnology, sc-54), diluted 1:25 and 1:50 in blocking buffer, respectively. 60 μL of primary antibody mixture was added to each well, the plate was sealed and incubated overnight at 4° C.
The primary antibodies were removed and cells were washed as previously described. 100 μL of secondary antibody mixture, containing horseradish-peroxidase (HRP)-conjugated goat anti-rabbit IgG and alkaline phosphatase (AP)-conjugated goat anti-mouse IgG, diluted 1:100 in blocking buffer, was added to each test well. The plate was re-sealed and incubated for 2 hours at room temperature.
The secondary antibodies were removed and cells washed 2 times with wash buffer, followed by 2 washes with PBS. Each wash step was carried out for 5 minutes with gentle shaking. PBS was removed and 75 μL of fluorogenic substrate for HRP (substrate F1) added to each well. The plate was sealed and incubated for 1 h at room temperature, in the dark. 75 μL of fluorogenic substrate for AP (substrate F2) was added directly to each well, plate re-sealed and incubated for additional 40 minutes at room temperature, protected from direct light.
Following incubation fluorescence from each well was read at 600 nm (signal from substrate 1, phosphorylated protein) and then at 450 nm (signal from substrate 2, total protein).
The percentage of phospho-cdc2 was calculated compared to DMSO control, normalized to the total cdc2 and plotted versus the concentration of inhibitor, using GraphPad Prism. Data was fitted using a non-linear regression analysis and EC50 values generated.

[2] = target: T1, Wee-1 kinase (Homo sapiens, UniProt P30291); experiment: Measurement of Wee-1 kinase activity (ADP-Glo luminescent kit); type: biochemical
T1 construct: purchased Invitrogen PV3817
T1 sequence (P30291 whole entry): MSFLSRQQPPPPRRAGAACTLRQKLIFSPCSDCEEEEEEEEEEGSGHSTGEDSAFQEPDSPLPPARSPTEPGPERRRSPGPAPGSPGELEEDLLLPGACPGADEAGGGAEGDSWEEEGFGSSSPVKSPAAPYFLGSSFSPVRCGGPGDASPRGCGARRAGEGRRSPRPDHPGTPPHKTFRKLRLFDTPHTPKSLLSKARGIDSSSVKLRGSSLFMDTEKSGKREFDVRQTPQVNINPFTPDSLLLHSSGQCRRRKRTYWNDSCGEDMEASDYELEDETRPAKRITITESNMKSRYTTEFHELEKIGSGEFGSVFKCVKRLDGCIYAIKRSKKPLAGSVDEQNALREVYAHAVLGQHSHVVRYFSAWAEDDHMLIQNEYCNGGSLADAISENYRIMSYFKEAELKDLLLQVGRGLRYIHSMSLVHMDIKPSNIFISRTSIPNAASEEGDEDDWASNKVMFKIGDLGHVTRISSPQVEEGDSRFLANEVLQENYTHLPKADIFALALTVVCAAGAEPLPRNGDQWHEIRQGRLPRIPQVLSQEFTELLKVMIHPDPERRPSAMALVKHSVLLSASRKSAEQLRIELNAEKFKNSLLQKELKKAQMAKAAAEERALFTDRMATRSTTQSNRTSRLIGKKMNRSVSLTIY
Procedure, shortened: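 Activated Wee-1 was pre-incubated 30 min at RT with compound in 40 mM Tris-HCl, 20 mM MgCl2, 0.1 mg/mL BSA and 2 mM DTT. The reaction was started with an aliquot of 2.0 μg/mL poly(Lys,Tyr 4:1) plus 30 μM ATP and run 1 h at RT. ADP-Glo luminescence gave IC50 by non-linear fit.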

[3] = CLint estimates using human liver microsomes (Method 4); type: in vitro ADME; conditions: pH 7.4, 1 μM compound, read-out: Mics - CLint (HLM CLint)
Procedure, shortened: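 Compound at 1 μM (0.1% DMSO) incubated with human liver microsomes (0.5 mg protein/mL) in 0.1 M phosphate pH 7.4 at 37 °C, started with 1 mM NADPH. Samples taken 2–50 min, quenched in methanol, measured by LC/MS/MS (MRM). Half-life and CLint derived from the slope of ln peak area versus time.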

SMILES	IC50 [2] [nM]	microsomal CLint at 1 μM [3] [µL/min/mg]	EC50 ([1]; Homo sapiens, HT-29, 8 h) [nM]	EC50 [1] [nM]
CN(C)CC(O)c1cccc(Nc2ncc3c(n2)N(C)CN(c2c(Cl)cccc2Cl)C3=O)c1 (stereo not drawn) [Example 172, 3-(2,6-dichlorophenyl)-7-((3-(2-(dimethylamino)-1-hydroxyethyl)phenyl)amino)-1-methyl-2,3-dihydropyrimido[4,5-d]pyrimidin-4(1H)-one]	10 to 100	–	≥ 1000	–
CN1CN(c2c(Cl)cccc2Cl)C(=O)c2cnc(Nc3ccc4c(c3)C3CCC4N3)nc21 (stereo not drawn) [Example 166, 3-(2,6-dichlorophenyl)-1-methyl-7-((1,2,3,4-tetrahydro-1,4-epiminonaphthalen-6-yl)amino)-2,3-dihydropyrimido[4,5-d]pyrimidin-4(1H)-one]	10 to 100	–	≥ 1000	–
O=C1c2cnc(Nc3ccc(N4CCNCC4)cc3)nc2N(c2ccccc2)CN1c1c(Cl)cccc1Cl [Example 171, 3-(2,6-dichlorophenyl)-1-phenyl-7-((4-(piperazin-1-yl)phenyl)amino)-2,3-dihydropyrimido[4,5-d]pyrimidin-4(1H)-one]	≤ 10	–	100 to 1000	–
CN1CN(c2c(Cl)cccc2Cl)C(=O)c2cnc(Nc3ccc(C4CCN(C5CCC5)CC4)c(CO)c3)nc21 [Example 181, 7-((4-(1-cyclobutylpiperidin-4-yl)-3-(hydroxymethyl)phenyl)amino)-3-(2,6-dichlorophenyl)-1-methyl-2,3-dihydropyrimido[4,5-d]pyrimidin-4(1H)-one]	≤ 10	–	100 to 1000	–
Cc1cc(Nc2ncc3c(n2)N(C)CN(c2c(Cl)cccc2Cl)C3=O)ccc1C1=CCNCC1 [Example 177, 3-(2,6-dichlorophenyl)-1-methyl-7-((3-methyl-4-(1,2,3,6-tetrahydropyridin-4-yl)phenyl)amino)-2,3-dihydropyrimido[4,5-d]pyrimidin-4(1H)-one]	≤ 10	–	100 to 1000	–
CN1CN(c2c(Cl)cccc2Cl)C(=O)c2cnc(Nc3ccc(C4=CCNCC4)c(CO)c3)nc21 [Example 179, 3-(2,6-dichlorophenyl)-7-((3-(hydroxymethyl)-4-(1,2,3,6-tetrahydropyridin-4-yl)phenyl)amino)-1-methyl-2,3-dihydropyrimido[4,5-d]pyrimidin-4(1H)-one]	≤ 10	–	≥ 1000	–
CNCc1cc(Nc2ncc3c(n2)N(C)CN(c2c(Cl)cccc2Cl)C3=O)ccc1-c1cnn(C)c1 [Example 160, 3-(2,6-dichlorophenyl)-1-methyl-7-((4-(1-methyl-1H-pyrazol-4-yl)-3-((methylamino)methyl)phenyl)amino)-2,3-dihydropyrimido[4,5-d]pyrimidin-4(1H)-one]	10 to 100	–	≥ 1000	–
C[C@@H]1CN(c2ccc(Nc3ncc4c(n3)N(C)CN(c3ccccc3Cl)C4=O)cc2)C[C@H](C)N1 [Example 103, 3-(2-chlorophenyl)-7-((4-((3S,5R)-3,5-dimethylpiperazin-1-yl)phenyl)amino)-1-methyl-2,3-dihydropyrimido[4,5-d]pyrimidin-4(1H)-one]	10 to 100	–	100 to 1000	–
CN1CN(c2c(Cl)cccc2Cl)C(=O)c2cnc(Nc3ccc4c(c3)C3CCC4N3C)nc21 (stereo not drawn) [Example 175, 3-(2,6-dichlorophenyl)-1-methyl-7-((9-methyl-1,2,3,4-tetrahydro-1,4-epiminonaphthalen-6-yl)amino)-2,3-dihydropyrimido[4,5-d]pyrimidin-4(1H)-one]	≤ 10	–	100 to 1000	–
CN1CN(c2c(Cl)cccc2Cl)C(=O)c2cnc(Nc3ccc(N4CC5COCC(C4)N5)c(CO)c3)nc21 [Example 173, 7-((4-(3-oxa-7,9-diazabicyclo[3.3.1]nonan-7-yl)-3-(hydroxymethyl)phenyl)amino)-3-(2,6-dichlorophenyl)-1-methyl-2,3-dihydropyrimido[4,5-d]pyrimidin-4(1H)-one]	10 to 100	–	100 to 1000	–

Continued, in another order:

IC50 [2] [nM]	microsomal CLint at 1 μM [3] [µL/min/mg]	SMILES	EC50 ([1]; Homo sapiens, HT-29, 8 h) [nM]	EC50 [1] [nM]
≤ 10	–	CN1CC=C(c2ccc(Nc3ncc4c(n3)N(C)CN(c3c(Cl)cccc3Cl)C4=O)cc2CO)CC1 [Example 180, 3-(2,6-dichlorophenyl)-7-((3-(hydroxymethyl)-4-(1-methyl-1,2,3,6-tetrahydropyridin-4-yl)phenyl)amino)-1-methyl-2,3-dihydropyrimido[4,5-d]pyrimidin-4(1H)-one]	100 to 1000	–
≤ 10	≤ 15	CNCc1cc(Nc2ncc3c(n2)N(C)CN(c2c(Cl)cccc2Cl)C3=O)ccc1N1CCC(F)(F)CC1 [Example 147, 3-(2,6-dichlorophenyl)-7-((4-(4,4-difluoropiperidin-1-yl)-3-((methylamino)methyl)phenyl)amino)-1-methyl-2,3-dihydropyrimido[4,5-d]pyrimidin-4(1H)-one]	100 to 1000	–
≤ 10	–	CN1CN(c2c(Cl)cccc2Cl)C(=O)c2cnc(Nc3ccc(N4C[C@@H]5C[C@H]4CN5C)c(CO)c3)nc21 [Example 176, 3-(2,6-dichlorophenyl)-7-((3-(hydroxymethyl)-4-((1S,4S)-5-methyl-2,5-diazabicyclo[2.2.1]heptan-2-yl)phenyl)amino)-1-methyl-2,3-dihydropyrimido[4,5-d]pyrimidin-4(1H)-one]	100 to 1000	–
≤ 10	–	COC[C@H]1CN(c2ccc(Nc3ncc4c(n3)N(C)CN(c3c(Cl)cccc3Cl)C4=O)cc2C(O)C(F)F)CCN1 (single isomer, unassigned) [Example 163]	–	100 to 1000
≤ 10	–	COC[C@H]1CN(c2ccc(Nc3ncc4c(n3)N(C)CN(c3c(Cl)cccc3Cl)C4=O)cc2C(O)C(F)(F)F)CCN1 (single isomer, unassigned) [Example 184]	–	≥ 1000
10 to 100	–	CCNCc1cc(Nc2ncc3c(n2)N(C)CN(c2c(Cl)cccc2Cl)C3=O)ccc1N1CCOCC1 [Example 174, 3-(2,6-dichlorophenyl)-7-((3-((ethylamino)methyl)-4-morpholinophenyl)amino)-1-methyl-2,3-dihydropyrimido[4,5-d]pyrimidin-4(1H)-one]	≥ 1000	–
≤ 10	–	COC[C@H]1CN(c2ccc(Nc3ncc4c(n3)N(C)CN(c3c(Cl)cccc3Cl)C4=O)cc2C(O)C(F)(F)F)CCN1 (single isomer, unassigned) [Example 185]	–	100 to 1000
≤ 10	–	Cc1cc(Nc2ncc3c(n2)N(C)CN(c2c(Cl)cccc2Cl)C3=O)ccc1C1=CCN(C)CC1 [Example 178, 3-(2,6-dichlorophenyl)-1-methyl-7-((3-methyl-4-(1-methyl-1,2,3,6-tetrahydropyridin-4-yl)phenyl)amino)-2,3-dihydropyrimido[4,5-d]pyrimidin-4(1H)-one]	100 to 1000	–
≤ 10	–	CN1CN(c2c(Cl)cccc2Cl)C(=O)c2cnc(Nc3ccc(N4C[C@@H]5C[C@H]4CN5)c(CO)c3)nc21 [Example 164, 7-((4-((1S,4S)-2,5-diazabicyclo[2.2.1]heptan-2-yl)-3-(hydroxymethyl)phenyl)amino)-3-(2,6-dichlorophenyl)-1-methyl-2,3-dihydropyrimido[4,5-d]pyrimidin-4(1H)-one]	≥ 1000	–
